Assay results taken from US11040047B2, “Prodrugs of nucleoside phosphonates” (Katholieke Universiteit Leuven, priority 2017, dated 2021).
Where two headings read alike, the source gives them in different places.

Legend:
[1] = test system: human cytomegalovirus (HCMV) strain AD-169; assay: Inhibition of virus-induced cytopathicity, HCMV AD-169, in HEL fibroblasts; assay type: cell-based; conditions: read-out: Antiviral activity EC50 HCMV AD-169 strain
HEL cells [2] = assay: Cytotoxicity, minimum cytotoxic concentration (cell morphology) in HEL cells; conditions: minimum concentration causing microscopically detectable alteration of cell morphology
[3] = test system: varicella-zoster virus (VZV) strain Oka; assay: Inhibition of plaque formation, VZV TK+ Oka, in HEL fibroblasts; assay type: cell-based; conditions: Human alphaherpesvirus 3, HEL, read-out: Antiviral activity EC50 VZV TK+ strain (OKA)
TK− VZV strain 07-1 = assay: microbe, parasite or virus in culture; assay type: cell-based, varicella-zoster virus; conditions: Human alphaherpesvirus 3, HEL, read-out: Antiviral activity EC50 VZV TK− strain
[4] = test system: Vaccinia virus (strain Lederle, ATCC VR-118); assay: microbe, parasite or virus in culture; assay type: cell-based; conditions: Orthopoxvirus vaccinia, HEL 299, 96 h, read-out: Antiviral activity EC50 Vaccinia virus
[5] = test system: human cytomegalovirus (HCMV) strain Davis; assay: Inhibition of virus-induced cytopathicity, HCMV Davis, in HEL fibroblasts; assay type: cell-based; conditions: read-out: Antiviral activity EC50 HCMV Davis strain
HEL 299 cells = conditions: human
[6] = test system: human adeno virus-2 (clinical isolate C251085); assay: Inhibition of virus-induced cytopathicity, human adeno virus-2, in HEL 299 cells; assay type: cell-based; conditions: Human mastadenovirus C, 240 h, 10 days, cytopathicity reduced by 50%, read-out: Antiviral activity EC50 Adenovirus 2
in vitro = conditions: human
HEL cells [7] = assay: Cytostatic activity, inhibition of HEL cell growth (CC50); conditions: read-out: Cytotoxicity HEL cells CC50, concentration reducing cell viability/proliferation by 50%, 3 days
[8] = Human betaherpesvirus 5, AD169, HEL
[9] = Human betaherpesvirus 5, AD169, HEL cells, reduction of virus-induced cytopathicity by 50%

| SMILES | EC50 [1, 8] [nM] | Cytotoxicity HEL cells MCC (HEL cells [2]; Table 1) | Cytotoxicity HEL cells MCC (HEL cells [2]; Table 2) | EC50 [3] [nM] | EC50 (TK− VZV strain 07-1) [nM] | EC50 [4] [nM] | EC50 ([5]; Human betaherpesvirus 5, HEL) [nM] | Cytotoxicity MCC (HEL 299 cells) | EC50 [6] [nM] | CC50 at 3 days (in vitro) [nM] | EC50 [1, 9] [nM] | CC50 (HEL cells [7]; Table 1) [nM] | CC50 at 3 days (in vitro; HEL cells) [nM] | EC50 ([5]; Human betaherpesvirus 5, HEL cells, reduction of virus-induced cytopathicity by 50%) [nM] | CC50 (HEL cells [7]; Table 2) [nM] |
| --- | --- | --- | --- | --- | --- | --- | --- | --- | --- | --- | --- | --- | --- | --- | --- |
| CCCCCOC(=O)C[C@H](NP1(=O)CO[C@@H](Cn2cnc3c(N)ncnc32)CO1)C(=O)OCCCCC (stereo partly drawn) [Example 8, Diamyl {(5S)-5-[(6-amino-9H-purin-9-yl)methyl]-2-oxido-1,4,2-dioxaphosphinan-2-yl}-L-aspartate] | 27 | 13.6 | 13.6 | 1.4 | 1.5 | 77 | 9 | ≥20 | 183 | 2730 | – | – | – | – | – |
| CCCCCOC(=O)[C@H](CCSC)NP1(=O)CO[C@@H](Cn2cnc3c(N)ncnc32)CO1 (stereo partly drawn) [Example 13, Amyl ((5S)-5-((6-amino-9H-purin-9-yl)methyl)-2-oxido-1,4,2-dioxaphosphinan-2-yl)-L-methioninate] | 32 | 4.11 | 4.11 | 2.6 | 4 | – | 29 | – | – | 39600 | – | – | – | – | – |
| Nc1nc(O)c2ncn(COC(CO)CO)c2n1 [Ganciclovir, reference compound] | – | >39.2 | >39.2 | – | – | – | – | – | – | – | 7400 | – | – | – | – |
| O=c1[nH]c(=O)n([C@H]2C[C@H](O)[C@@H](CO)O2)cc1/C=C/Br [Brivudin, reference compound] | – | >30.0 | >30.0 | 53 | 22100 | 5800 | – | >250 | – | > 300000 | – | > 300000 | – | – | – |
| Nc1nc2c(ncn2COCCO)c(=O)[nH]1 [Acyclovir, reference compound] | – | >88.8 | >88.8 | – | – | – | – | – | – | – | – | – | – | – | – |
| CCCCCOC(=O)C[C@H](NP1(=O)CO[C@@H](Cn2ccc(N)nc2=O)CO1)C(=O)OCCCCC (stereo partly drawn) [Example 10, Diamyl {(5S)-5-[(4-amino-2-oxopyrimidin-1(2H)-yl)methyl]-2-oxido-1,4,2-dioxaphosphinan-2-yl}-L-aspartate] | 12 | 19.4 | 19.4 | 5.5 | 6.3 | – | 19 | – | – | – | – | – | 33100 | – | – |
| CCCCCOC(=O)[C@H](C)NP1(=O)CO[C@@H](Cn2cnc3c(N)ncnc32)CO1 (stereo partly drawn) [Example 14, Amyl ((5S)-5-((6-amino-9H-purin-9-yl)methyl)-2-oxido-1,4,2-dioxaphosphinan-2-yl)-L-alaninate] | 64 | 23.5 | 23.5 | 2 | 4.3 | – | 65 | – | – | 3400 | – | – | – | – | – |
| CCCCCOC(=O)[C@@H](NP1(=O)CO[C@@H](Cn2cnc3c(N)ncnc32)CO1)[C@@H](C)CC (stereo partly drawn) [Example 18, Amyl {(5S)-5-[(6-amino-9H-purin-9-yl)methyl]-2-oxido-1,4,2-dioxaphosphinan-2-yl}-L-isoleucinate] | 7 | 9.96 | 9.96 | 0.45 | 0.54 | – | 6.5 | – | – | 12000 | – | – | – | – | – |
| Nc1ccn(C[C@@H](CO)OCP(=O)(O)O)c(=O)n1 [Cidofovir, reference compound] | – | >71.6 | >71.6 | – | – | 50000 | – | >250 | 10000 | – | 1600 | > 358000 | > 358000 | 840 | – |
| CCCCCOC(=O)C[C@H](NP1(=O)CO[C@H](Cn2ccc(N)nc2=O)CO1)C(=O)OCCCCC (stereo partly drawn) [Example 11, Diamyl {(5R)-5-[(4-amino-2-oxopyrimidin-1(2H)-yl)methyl]-2-oxido-1,4,2-dioxaphosphinan-2-yl}-L-aspartate] | 2680 | >19 | >19 | 810 | 1240 | – | 3530 | – | – | – | – | – | > 194000 | – | > 194000 |
| CCCCCOC(=O)CC[C@H](NP1(=O)CO[C@@H](Cn2cnc3c(N)ncnc32)CO1)C(=O)OCCCCC (stereo partly drawn) [Example 15, Diamyl {(5S)-5-[(6-amino-9H-purin-9-yl)methyl]-2-oxido-1,4,2-dioxaphosphinan-2-yl}-L-glutamate] | 14 | 13.2 | 13.2 | 0.58 | 0.95 | – | 7.6 | – | – | 520 | – | – | – | – | – |
| CCCCCOC(=O)[C@@H](NP(=O)(CO[C@H](CO)Cn1cnc2c(N)ncnc21)N[C@H](C(=O)OCCCCC)C(C)C)C(C)C [Example 19, diamyl 2,2′-((((((S)-1-(6-amino-9H-purin-9-yl)-3-hydroxypropan-2-yl)oxy)methyl)phosphoryl)bis(azanediyl))(2S,2′S)-bis(3-methylbutanoate)] | 100 | 8.57 | 8.57 | 1.5 | 0.95 | 42.5 | 72 | ≥20 | 13.5 | 600 | – | – | – | – | – |
| CCCCCOC(=O)[C@@H](NP1(=O)CO[C@@H](Cn2cnc3c(N)ncnc32)CO1)C(C)C (stereo partly drawn) [Example 16, Amyl {(5S)-5-[(6-amino-9H-purin-9-yl)methyl]-2-oxido-1,4,2-dioxaphosphinan-2-yl}-L-valinate] | 5.9 | 4.40 | 4.40 | 0.57 | 1.5 | – | 4.8 | – | – | 7760 | – | – | – | – | – |
| Nc1nc2c(ncn2CCC(CO)CO)c(=O)[nH]1 [Penciclovir, reference compound] | – | >79.0 | – | – | – | – | – | – | – | – | – | > 395000 | – | – | – |
| CCCCCOC(=O)[C@H](Cc1ccccc1)NP1(=O)CO[C@@H](Cn2cnc3c(N)ncnc32)CO1 (stereo partly drawn) [Example 12, Amyl ((5S)-5-((6-amino-9H-purin-9-yl)methyl)-2-oxido-1,4,2-dioxaphosphinan-2-yl)-L-phenylalaninate] | 31 | 9.3 | 9.3 | 0.52 | 3.2 | – | 17 | – | – | 30600 | – | – | – | – | – |
| CCCCCOC(=O)[C@H](CC(C)C)NP1(=O)CO[C@@H](Cn2cnc3c(N)ncnc32)CO1 (stereo partly drawn) [Example 17, Amyl {(5S)-5-[(6-amino-9H-purin-9-yl)methyl]-2-oxido-1,4,2-dioxaphosphinan-2-yl}-L-leucinate] | 5.7 | 4.27 | 4.27 | 0.47 | 0.59 | 77.5 | 3.8 | ≥0.8 | 43.5 | 1620 | – | – | – | – | – |
| CCCCCOC(=O)C[C@H](NP1(=O)CO[C@H](Cn2cnc3c(N)ncnc32)CO1)C(=O)OCCCCC (stereo partly drawn) [Example 9, Diamyl {(5R)-5-[(6-amino-9H-purin-9-yl)methyl]-2-oxido-1,4,2-dioxaphosphinan-2-yl}-L-aspartate] | 4390 | >18.5 | >18.5 | 33 | 62 | – | 1620 | – | – | 11600 | – | – | – | – | – |
